Source: article PMC11800497, “Antifungal activity and biocompatibility assessment with molecular docking and dynamic simulations of new pyrazole derivatives” (BMC Biotechnology, 2025)
Read-outs that look alike come from different tables or passages of the source. Marks after values point to notes of the source that are not given here.

Assays:
Assay in all cases: Well-diffusion antifungal activity
[1] = system: P. chrysogenum ATCC 10106; format: cell-based, Penicillium chrysogenum; settings: for zone of inhibition at 1000 µg/mL: Penicillium chrysogenum, read-out: IZD; for AI (activity index): relative to Fluconazole 1000 µg/ml
Experimental: (§1) This study investigated strains of four distinct fungal pathogens: Aspergillus flavus ATCC 9643, A. niger ATCC 11414, Rhizopus oryzae ATCC 96382, and Penicillium chrysogenum ATCC 10106. Every strain was acquired from the Dep. of Micro. Fac. Agric., […] Uni., in Egypt. Initially kept and preserved in malt agar medium at 4 °C, the pathogens were then grown overnight at 28 °C in malt broth medium to evaluate the antifungal activity. Fungal pathogen standard inoculum was prepared by following the procedure described by. To assess the antifungal activity, the pathogens were first maintained and stored at 4 °C in malt agar medium. They were then cultured in malt broth medium for a whole night at 28 °C. According to [22], the well-diffusion technique was used to test the antifungal activity. This included using a 9.0 mm cork borer that had been sterilized to create wells in the malt agar layer. […] After adding 1000 μg/ml of control pyrazole compounds and the standard antifungal (Fluconazole 1000 μg/ml) to each well, the petri dishes were incubated at 28 °C for 72 h. The diameter of the standard reference antifungal was compared to the millimeters measurements of the inhibitory zones. The formula according to [22] was utilized to compute the activity index (AI).1 [drawing 1]

A. niger ATCC 11414 = format: cell-based, Aspergillus niger; settings: for AI (activity index): relative to Fluconazole 1000 µg/ml; for zone of inhibition at 1000 µg/mL: Aspergillus niger, read-out: IZD
Experimental: This study investigated strains of four distinct fungal pathogens: Aspergillus flavus ATCC 9643, A. niger ATCC 11414, Rhizopus oryzae ATCC 96382, and Penicillium chrysogenum ATCC 10106. Every strain was acquired from the Dep. of Micro. Fac. Agric., […] Uni., in Egypt. Initially kept and preserved in malt agar medium at 4 °C, the pathogens were then grown overnight at 28 °C in malt broth medium to evaluate the antifungal activity. Fungal pathogen standard inoculum was prepared by following the procedure described by [19, 20]. To assess the antifungal activity, the pathogens were first maintained and stored at 4 °C in malt agar medium. They were then cultured in malt broth medium for a whole night at 28 °C. According to [22], the well-diffusion technique was used to test the antifungal activity. This included using a 9.0 mm cork borer that had been sterilized to create wells in the malt agar layer. […] After adding 1000 μg/ml of control pyrazole compounds and the standard antifungal (Fluconazole 1000 μg/ml) to each well, the petri dishes were incubated at 28 °C for 72 h. The diameter of the standard reference antifungal was compared to the millimeters measurements of the inhibitory zones. The formula according to [22] was utilized to compute the activity index (AI).1 [drawing 1]

A. flavus ATCC 9643 = format: cell-based, Aspergillus flavus; settings: for zone of inhibition at 1000 µg/mL: Aspergillus flavus, read-out: IZD
Experimental: as §1

R. oryzae ATCC 96382 = format: cell-based, Rhizopus oryzae; settings: Rhizopus arrhizus, read-out: IZD
Experimental: as §1

[2] = ATCC10106, 1000 µg/ml, 72 h, 28 °C
[3] = ATCC11414, 1000 µg/ml, 72 h, 28 °C
[4] = ATCC9643, 1000 µg/ml, 72 h, 28 °C
[5] = ATCC96382, 1000 µg/ml, 72 h, 28 °C

Row | Compound | zone of inhibition at 1000 µg/mL [1, 2] [mm] | AI (activity index) (A. niger ATCC 11414; 1000 µg/ml) | zone of inhibition at 1000 µg/mL (A. niger ATCC 11414; [3]) [mm] | zone of inhibition at 1000 µg/mL (A. flavus ATCC 9643; [4]) [mm] | zone of inhibition at 1000 µg/mL (R. oryzae ATCC 96382; [5]) [mm] | AI (activity index) ([1]; 1000 µg/ml) | IZD ([1]; 1000 µg/ml, 72 h, 28 °C) | IZD (A. niger ATCC 11414; 1000 µg/ml, 72 h, 28 °C) | IZD (A. flavus ATCC 9643; 1000 µg/ml, 72 h, 28 °C) | zone of inhibition at 1000 µg/mL ([1]; ATCC10106, 72 h) [mm] | zone of inhibition at 1000 µg/mL (A. niger ATCC 11414; ATCC11414, 72 h) [mm] | zone of inhibition at 1000 µg/mL (A. flavus ATCC 9643; ATCC9643, 72 h) [mm] | zone of inhibition at 1000 µg/mL (R. oryzae ATCC 96382; ATCC96382, 72 h) [mm]
1 | N#C/C(=C\c1cn(-c2ccccc2)nc1-c1ccccc1)C(=O)Nc1nccs1 [3g] | 0 | 0.56 | 18 ± 0.77 | 0 | 0 |  |  |  |  |  |  |  | 
2 | N#Cc1c(-c2cn(-c3ccccc3)nc2-c2ccccc2)[nH][nH]c1=O [compound 7] | 13 ± 0.11 |  | 0 | 0 | 0 | 0.56 |  |  |  |  |  |  | 
3 | Cc1ccc(N=Nc2ccc3oc(=O)c(C(=O)NN=Cc4cn(-c5ccccc5)nc4-c4ccccc4)cc3c2)cc1 [10b] | 20 | 0.87 | 28 | 0 | 0 | 0.87 | 20 ± 0.13^e mm | 28 ± 0.12^c mm |  |  |  |  | 
4 | N#C/C(=C\c1cn(-c2ccccc2)nc1-c1ccccc1)C(=O)Nc1nc2ccccc2s1 [3h] | 15 ± 0.25 |  | 0 | 0 | 0 | 0.65 |  |  |  |  |  |  | 
5 | N#C/C(=C\c1cn(-c2ccccc2)nc1-c1ccccc1)C(=O)Nc1ccc([N+](=O)[O-])cc1 [3f] | 0 |  | 0 | 0 | 0 |  |  |  |  |  |  |  | 
6 | N#C/C(=C\c1cn(-c2ccccc2)nc1-c1ccccc1)C(=O)Nc1ccc(C(=O)O)cc1 [3e] | 0 |  | 0 | 0 | 0 |  |  |  |  |  |  |  | 
7 | CN(C)C=C1C(=O)NN=C(c2cn(-c3ccccc3)nc2-c2ccccc2)C1=O [compound 12] | 0 | 0.78 | 25 | 23 | 0 |  |  | 25 ± 0.08^f mm | 23 ± 0.02^d mm |  |  |  | 
8 | N#C/C(=C\c1cn(-c2ccccc2)nc1-c1ccccc1)C(=O)Nc1ccc(Cl)cc1 [3d] | 0 |  | 0 | 0 | 0 |  |  |  |  |  |  |  | 
9 | CN(C)/C=C(\C#N)C(=O)N/N=C/c1cn(-c2ccccc2)nc1-c1ccccc1 [compound 11] | 0 |  | 0 | 0 | 0 |  |  |  |  |  |  |  | 
10 | N#C/C(=C\c1cn(-c2ccccc2)nc1-c1ccccc1)C(=O)Nc1ccc(Br)cc1 [3c] | 0 |  | 0 | 0 | 0 |  |  |  |  |  |  |  | 
11 | O=C(NN=Cc1cn(-c2ccccc2)nc1-c1ccccc1)c1cc2ccccc2oc1=O [10a] | 0 |  | 0 | 0 | 0 |  |  |  |  |  |  |  | 
12 | O=Cc1cn(-c2ccccc2)nc1-c1ccccc1 [compound 1, 1,3-diphenyl-1H-pyrazole-4-carbaldehyde] |  |  |  |  |  |  |  |  |  | 0 | 0 | 0 | 0
13 | N#CCC(=O)NN=Cc1cn(-c2ccccc2)nc1-c1ccccc1 [compound 8] | 0 |  | 0 | 0 | 0 |  |  |  |  |  |  |  | 
14 | O=C1OC(=O)c2c(Br)c(Br)c(Br)c(Br)c21 [compound 5, 4,5,6,7 tetrabromoisobenzofuran-1,3-dione] | 0 |  | 0 | 0 | 0 |  |  |  |  |  |  |  | 
15 | Cc1ccc(NC(=O)/C(C#N)=C/c2cn(-c3ccccc3)nc2-c2ccccc2)cc1 [3a] | 0 |  | 0 | 0 | 0 |  |  |  |  |  |  |  | 
16 | OC(Cn1cncn1)(Cn1cncn1)c1ccc(F)cc1F [Fluconazole, reference compound] | 23.1 ± 0.06 |  | 32 ± 0.2 | 30.02 ± 0.05 | 20.99 ± 0.05 |  |  |  |  |  |  |  | 
